Patent US5300672A (priority 1992, dated 1994)
Converted amounts (≈) assume the structure as drawn. Where two headings read alike, the source gives them in different places.

Key:
[1] = system: Erysiphe graminis (f. sp. tritici); experiment: whole plant or invertebrate; assay type: in vivo
Pseudomonas fluorescens [2] = experiment: Alternate Minimum Inhibitory Concentrations Test (Table 4), Ps.fl; assay type: cell-based; details: Table 4 alternate test, 250 ppm to 0.8 ppm in TSB, 72 hours, 30° C.; for MIC: Pseudomonas fluorescens, read-out: MIC Ps.fl
Method in brief: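 Broth microdilution MIC in TSB: compound (from acetone stock) serially diluted 1:1 from 250 ppm to 0.8 ppm, inoculated with diluted 24 h culture. After 3 days at 30 °C, the lowest concentration with no growth was recorded as MIC.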

Pythium ultimum = Pythium ultimum in vitro Fungitoxicity Assay in liquid culture; assay type: cell-based, Pythium ultimum (ATCC 26083); details: mycelial dry weight, 48 h at 25° C., shaking at 60 rpm
Protocol: Selected compounds of Examples 1-120 were subjected also to the following in vitro fungitoxicity assay against Pythium ultimum in a liquid culture, with the results as indicated in Table 6.
Pythium ultimum Fungitoxicity Assay
A dilution series of the test compound was prepared in dimethylsulfoxide, and 0.1 ml of each dilution was added to 19.9 ml of a liquid asparagine-sucrose medium (D. C. Erwin and K. Katznelson (1971), Can. J. Microbiol. 7, 15) in 9 cm diameter petri dishes to give the desired final concentrations of test compound. Plates were inoculated with mycelial plugs, 7 mm diameter, taken from the growing edge of 48 h old cultures of Pythium ultimum, (ATCC 26083), grown on potato dextrose agar. Two replicate plates were used for each treatment. The increase in mycelial dry weight was determined after growth for 48 h at 25° C. with shaking at 60 rpm. EC50 values were calculated from dose response curves.

Phytophthora infestans = experiment: whole plant or invertebrate; assay type: in vivo; details: for pest or weed control at 100 ppm / pest or weed control at 200 ppm: Phytophthora infestans, in Solanum lycopersicum, 96 h; for pest or weed control at 200 ppm: read-out: % Control TLB, application rate 200 ppm
[3] = system: Puccinia recondita (f. sp. tritici Races PKB and PLD); experiment: whole plant or invertebrate; assay type: in vivo
[4] = system: Pellicularia filamentosa (f. sp. sasiki); experiment: whole plant or invertebrate; assay type: in vivo; details: 120 h; read-out: % Control RSB
Piricularia oryzae = experiment: whole plant or invertebrate; assay type: in vivo; details: for pest or weed control at 200 ppm: read-out: % Control RB, application rate 200 ppm
Escherichia coli = experiment: Broth two-fold serial dilution MIC test (Table 3), E.c; assay type: cell-based; details: gram negative, dilution series 500 to 4 ppm
From the text: (§1) A minimum inhibitory concentration (MIC) value is obtained using a broth, two-fold serial dilution test performed as follows: A stock solution or dispersion of the test compound, typically at a concentration of 1%, is made in a 5:3:2 solvent solution of acetone, methanol, and water. A volume of the stock solution is dispensed into culture media to give an initial starting test concentration of 500 ppm compound.
(§2) When the test is ready to be done, each vessel in the dilution series, except the first vessel, contains an equal volume of compound free broth. The first vessel contains twice the volume of broth with the starting concentration of test compound. One half of the broth from the first vessel is transferred to the second vessel. After being mixed, one half the resulting volume is removed from the second vessel and transferred to the third vessel. The entire cycle is repeated sufficiently to give a series of concentrations amounting to 500, 250, 125, 63, 31, 16, 8, and 4 ppm, respectively.
(§3) Each vessel is then inoculated with a cell suspension of the appropriate test organism. Bacteria are grown in broth and fungi on agar slants for a time and at a temperature appropriate to the species being tested. At the end of the growth period, the broth is vortexed to disperse the cells. In the case of fungi, the spores are harvested by pipetting water onto the slant and dislodging the spores with a sterile loop. The cell/spore suspension is standardized by controlling incubation time, temperature, and the volume of the diluent. The suspension is then used to inoculate the vessels containing the broth compound. The vessels are then incubated at the appropriate temperature. After the incubation, the vessels are examined for growth/no growth. The minimum inhibitory concentration (MIC) is defined as the lowest concentration of compound that results in complete inhibition of growth of the test organism.
Escherichia coli (E.c), gram negative

Staphylococcus aureus = experiment: Broth two-fold serial dilution MIC test (Table 3), S.a; assay type: cell-based; details: gram positive, dilution series 500 to 4 ppm
From the text: as §1, §2, §3
Staphylococcus aureus (S.a), gram positive

Aspergillus niger = experiment: Broth two-fold serial dilution MIC test (Table 3), A.n; assay type: cell-based; details: dilution series 500 to 4 ppm
From the text: as §1, §2, §3

Pseudomonas aerugenosa = experiment: Broth two-fold serial dilution MIC test (Table 3), Ps.ae; assay type: cell-based; details: gram negative, dilution series 500 to 4 ppm
From the text: as §1, §2, §3
Pseudomonas aerugenosa (Ps.ae), gram negative

[5] = system: Puccinia graminis (f. sp. tritici Race 15B-2); experiment: whole plant or invertebrate; assay type: in vivo
Pseudomonas fluorescens [6] = experiment: Broth two-fold serial dilution MIC test (Table 3), Ps.fl; assay type: cell-based; details: gram negative, dilution series 500 to 4 ppm
From the text: as §1, §2, §3
Pseudomonas fluorescens (Ps.fl), gram negative

[7] = system: Pseudoperonospora cubensis; experiment: whole plant or invertebrate; assay type: in vivo
Aureobasidium pullulans = experiment: Broth two-fold serial dilution MIC test (Table 3), A.p; assay type: cell-based; details: dilution series 500 to 4 ppm
From the text: as §1, §2, §3
Aureobasidium pullulans (A.p)

[8] = Blumeria graminis, read-out: % Control WPM
[9] = Globisporangium ultimum, read-out: EC 50
[10] = Puccinia recondita, 240 h, read-out: % Control WLR

Row | SMILES | MIC (Pseudomonas fluorescens [2]) [µg/mL] | EC50 (Pythium ultimum; [9]) [µg/mL] | pest or weed control at 200 ppm [1, 8] [%] | pest or weed control at 200 ppm (Piricularia oryzae; Pyricularia oryzae) [%] | pest or weed control at 200 ppm (Phytophthora infestans) [%] | pest or weed control at 200 ppm [3, 10] [%] | pest or weed control at 200 ppm [4] [%] | further results
1 | CCCCCCCCNC(=O)/C=C\SCn1cncn1 [Compound 7, N-octyl-cis-3-[1-(1,2,4-triazoyl)methylthio]acrylamide] | > 250 | 50 (≈ 169 µM) | – | – | – | – | – | pest or weed control at 100 ppm [1, 8]: 0%; pest or weed control at 100 ppm (Phytophthora infestans; read-out: % Control TLB, application rate 100 ppm): 0%; pest or weed control at 100 ppm [3, 10]: 0%; pest or weed control at 6 ppm [4]: 50%
2 | CCCCCCCCNC(=O)/C=C\SC(=O)CC(C)c1ccccc1 (stereo not drawn) [Compound 78, N-octyl-cis-3-[(3-phenylbutanoyl)thio]acrylamide] | > 250 | 23.9 (≈ 66.1 µM) | 0 | 0 | 0 | 0 | 0 | –
3 | CCCCCCCCNC(=O)/C=C\SC(=O)/C=C/c1ccc(C(F)(F)F)cc1 [Compound 70, N-octyl-cis-3-[(trans-3-(4-(trifluoromethyl)phenyl)propenoyl)thio]acrylamide] | > 250 | 5 (≈ 12.1 µM) | 0 | 50 | 0 | 0 | 0 | –
4 | CCCCCCCCNC(=O)/C=C\SC[C@H](N)C(=O)O [Compound 47, N-octyl-cis-3-[(2-amino-2-carboxyethane)thio]acrylamide] | > 250 | – | – | – | – | – | – | MIC (Escherichia coli): > 500 µg/mL; pest or weed control at 50 ppm (Piricularia oryzae; Pyricularia oryzae, read-out: % Control RB, application rate 50 ppm): 0%; MIC (Staphylococcus aureus): > 500 µg/mL; MIC (Aspergillus niger): > 500 µg/mL; pest or weed control at 100 ppm (Phytophthora infestans; read-out: % Control TLB): 90%; MIC (Pseudomonas aerugenosa): > 500 µg/mL; pest or weed control at 50 ppm ([5]; Puccinia graminis, 336 h, read-out: % Control WSR): 90%; MIC (Pseudomonas fluorescens [6]): > 500 µg/mL; pest or weed control at 12 ppm ([7]; Pseudoperonospora cubensis, in Cucumis sativus, 168 h, read-out: % Control CDM): 70%; MIC (Aureobasidium pullulans): > 500 µg/mL
5 | CCCCCCCCNC(=O)/C=C\SC(=O)c1cccn1C [Compound 61, N-octyl-cis-3-[(1-methyl-2-pyrrole)carbonylthio]acrylamide] | > 250 | 59.5 (≈ 185 µM) | 0 | 0 | 0 | 0 | 0 | –
6 | CCCCCCCCNC(=O)/C=C\SCC(O)c1ccco1 (centres unmarked) [Compound 42] | – | – | – | – | – | – | – | % Control WPM ([1]; in vivo): 0 % Control; % Control RB (Piricularia oryzae; in vivo): 90 % Control; MIC Ps.fl (Pseudomonas fluorescens [2]): > 250 Ppm; EC50 (Pythium ultimum): 9 ppm; % Control TLB (Phytophthora infestans; application rate 200 ppm): 0 % Control; % Control WLR ([3]; in vivo): 0 % Control; % Control WSR ([5]; application rate 200 ppm): 50 % Control; % Control CDM ([7]; in vivo): 50 % Control
7 | CCCCCCCCNC(=O)/C=C\SC(=O)C1CCc2ccccc2C1 (stereo not drawn) [Compound 74, N-octyl-cis-3-[(1,2,3,4-tetrahydronaphth-2-oyl)thio]acrylamide] | > 250 | 5 (≈ 13.4 µM) | 0 | 0 | 0 | 0 | 0 | –
